The text below walks through data of PubChem BioAssay (NCI).

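Tested at 5 concentrations; 48 h exposure; 96-well plates; endpoints linearly interpolated, else capped at highest concentration. TGI is the concentration that stops growth completely.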 Where only a bound is given, the exact number is not on record here.

Holding throughout (test): NCI-60 cell line screen, 48 h
For test [1], the system named is SK-MEL-5 melanoma.
The test system of test [2] is HS 578T breast.
Test [3] has as its system ACHN renal.
Test [4] relates to HCT-15 colon.
The subject of test [5] is 786-0 renal.
Test [6] has as its system SW-620 colon.
The test system of test [7] is SK-OV-3 ovarian.
Test [8] relates to SNB-75 CNS.
The test system of test [9] is SF-539 CNS.
Test [10] has as its system PC-3 prostate.
Test [11] has as its system CCRF-CEM leukemia.
Test [12] relates to DU-145 prostate.
The subject of test [13] is SK-MEL-2 melanoma.

On to `O=C1OC[C@@H]2Cc3c([nH]c4ccccc34)[C@@H](c3ccc(O)cc3)N12`, for which the TGI in test [1] was 33.2 µM; in [2] it was > 100 µM; in [3], > 74.2 µM; in [4], > 100 µM; in [5] it was > 100 µM; in [6] it was > 100 µM. Also, the TGI in [7] was > 95.1 µM; in [8], 69.4 µM; in [9], > 74 µM; in test [10], > 100 µM; in test [11], > 84.4 µM; in test [12], > 100 µM. In addition, the TGI in [13] worked out at 67.6 µM.
`CCOP(=O)(OCC)/C(F)=C/c1ccccc1`: the TGI in [1], in test [2], in test [3], in test [4], in test [5] and in test [6] was > 100 µM throughout. Moreover, the TGI in [7], in test [8], in [9], in test [10], in [11] and in test [12] was > 100 µM in each case. In addition, in test [13], the TGI was > 100 µM.
On to `CCOC(=O)c1cnc2[nH]ccn2c1=O`, for which the TGI in test [1], in [2], in test [3], in test [4], in test [5] and in test [6] was > 10 µM each time. Moreover, the TGI in test [7], in test [8], in test [9], in test [10], in test [11] and in test [12] was > 10 µM throughout. In test [13], the TGI was > 10 µM.
Regarding `O=C1C(Br)=Cc2c(Cl)sc(Cl)c21`, the TGI was > 53.7 µM in [1]; > 93.8 µM in [2]; 9.83 µM in [3]; 18.6 µM in test [4]; 5.09 µM in test [5]; 12.9 µM in test [6]. Moreover, the TGI is 35.8 µM in test [7]; 30.4 µM in test [8]; 15.1 µM in test [9]; 6.83 µM in test [10]; > 100 µM in [11]; 18 µM in [12]. In addition, the TGI in test [13] is 32.3 µM.
With `C(=Nc1ccc(-c2nc3ccccc3s2)cc1)c1ccco1`, the TGI in test [1], in test [2], in test [3], in [4], in test [5] and in [6] was > 100 µM in each case. In addition, the TGI in test [7], in test [8], in test [9], in test [10], in [11] and in test [12] was > 100 µM throughout. The TGI in test [13] was > 100 µM.
As for `COc1ccc2c(c1)C(=O)c1ccccc1C2`, the TGI in [1], in test [2], in test [3], in test [4], in [5] and in test [6] was > 100 µM each time. Moreover, the TGI in test [7] was > 100 µM; in test [8], 63.5 µM; in [9], > 100 µM; in [10] it was > 100 µM; in test [11], > 100 µM; in test [12] it was 35 µM. In addition, the TGI in test [13] was > 100 µM.
On to `Nc1ncnc2c1ncn2C(=O)NC12CC3CC(CC(C3)C1)C2`, for which the TGI in [1], in test [2], in [3], in [4], in test [5] and in test [6] was > 100 µM each time. Further, the TGI in test [7], in test [8], in test [9], in test [10], in [11] and in [12] was > 100 µM each time. Also, the TGI in [13] was > 100 µM.
In the case of `O=C1N[C@@H]2c3c(csc3Br)C(=O)[C@@H]2O1`, the TGI in test [1] is > 100 µM; in test [2], > 100 µM; in [3] it was > 100 µM; in test [4], > 100 µM; in [5], > 100 µM; in [6], 50.5 µM. Besides, the TGI is > 100 µM in test [7]; > 100 µM in [8]; > 100 µM in test [9]; > 100 µM in test [10]; 40.1 µM in [11]; > 100 µM in test [12]. In test [13], the TGI is > 100 µM.
For `O=C(O)c1ccc(NS(=O)(=O)Cc2ccccc2)cc1`, the TGI in test [1], in [2], in test [3], in test [4], in [5] and in test [6] was > 100 µM each time. The TGI in [7], in [8], in [9], in [10], in [11] and in test [12] was > 100 µM throughout. Moreover, in [13], the TGI is > 100 µM.
Consider `Cc1cccc(C[C@@]2(SCc3ccccc3)C(C)(C)[C@@H]3CC[C@@]2(C)C3)n1`, for which the TGI was 29.4 µM in test [1]; 49.1 µM in [2]; 28.8 µM in [3]; 26.8 µM in test [4]; 35.5 µM in test [5]; 30.5 µM in [6]. The TGI in [7] was determined as 51.4 µM; in test [8], 34.4 µM; in [9], 55.1 µM; in test [10], 35.7 µM; in test [11], 27.6 µM; in test [12], 32.2 µM. Further, the TGI in test [13] was found to be 27.8 µM.
As to `CN1CN(c2ccccc2)C2(CCN(CCCC3(c4cccs4)OCCO3)CC2)C1=O`, the TGI in test [1], in [2], in [3], in test [4], in test [5] and in test [6] was > 100 µM throughout. Further, the TGI in test [7], in test [8], in [9], in test [10], in test [11] and in test [12] was > 100 µM in each case. Besides, the TGI in test [13] was > 100 µM.
